Numbers after ± are expanded uncertainties.
What was measured:
[1] = 93.2 kPa, Liquid; for speed of sound: Frequency=3 MHz, Sing-around technique in a fixed-path interferometer; for mass density: Vibrating tube method
[2] = xn = mol fraction of the nth substance listed; settings: 93.2 kPa, Liquid, x2 = 0; for speed of sound: Frequency=3 MHz, Sing-around technique in a fixed-path interferometer; for mass density: Vibrating tube method

SMILES	speed of sound ([1]; 293.15 K) [m/s]	mass density ([1]; 293.15 K) [kg/m3]	speed of sound ([1]; 298.15 K) [m/s]	mass density ([1]; 298.15 K) [kg/m3]	speed of sound ([1]; 303.15 K) [m/s]	mass density ([1]; 303.15 K) [kg/m3]	speed of sound ([1]; 308.15 K) [m/s]	mass density ([1]; 308.15 K) [kg/m3]	speed of sound ([1]; 313.15 K) [m/s]	mass density ([1]; 313.15 K) [kg/m3]	speed of sound ([2]; 293.15 K) [m/s]	mass density ([2]; 293.15 K) [kg/m3]	speed of sound ([2]; 298.15 K) [m/s]	mass density ([2]; 298.15 K) [kg/m3]	speed of sound ([2]; 303.15 K) [m/s]	mass density ([2]; 303.15 K) [kg/m3]	speed of sound ([2]; 308.15 K) [m/s]	mass density ([2]; 308.15 K) [kg/m3]	speed of sound ([2]; 313.15 K) [m/s]	mass density ([2]; 313.15 K) [kg/m3]
CCCCO [butan-1-ol]	1256.8 ± 5.3	809.523 ± 4	1239.7 ± 5.3	805.71 ± 4	1222.8 ± 5.3	801.872 ± 4	1206.1 ± 5.3	798.004 ± 4	1189.5 ± 5.2	794.103 ± 4	–	–	–	–	–	–	–	–	–	–
CO [methanol]	1119.1 ± 5.2	791.347 ± 4	1102.5 ± 5.2	786.636 ± 4	1086 ± 5.2	781.907 ± 4	1069.7 ± 5.2	777.156 ± 4	1053.6 ± 5.2	772.385 ± 4	–	–	–	–	–	–	–	–	–	–
CO [methanol] + CCCC(=O)[O-].CCCC[NH3+]	–	–	–	–	–	–	–	–	–	–	1119.1 ± 5.2	791.347 ± 4	1102.5 ± 5.2	786.636 ± 4	1086 ± 5.2	781.907 ± 4	1069.7 ± 5.2	777.156 ± 4	1053.6 ± 5.2	772.385 ± 4
CCCC(=O)[O-].CCCC[NH3+] [n-butylammonium butanoate]	1431.5 ± 5.3	928.794 ± 4	1410.3 ± 5.3	925.509 ± 4	1390.4 ± 5.3	922.217 ± 4	1371.5 ± 5.3	918.88 ± 4	1353.6 ± 5.3	915.567 ± 4	–	–	–	–	–	–	–	–	–	–
CCCCCO [pentan-1-ol]	1292.8 ± 5.3	814.807 ± 4	1275.7 ± 5.3	811.144 ± 4	1258.8 ± 5.3	807.455 ± 4	1242.1 ± 5.3	803.736 ± 4	1225.5 ± 5.3	799.99 ± 4	–	–	–	–	–	–	–	–	–	–
CCCCCO [pentan-1-ol] + CCCC(=O)[O-].CCCC[NH3+]	–	–	–	–	–	–	–	–	–	–	1292.8 ± 5.3	814.807 ± 4	1275.7 ± 5.3	811.144 ± 4	1258.8 ± 5.3	807.455 ± 4	1242.1 ± 5.3	803.736 ± 4	1225.5 ± 5.3	799.99 ± 4

Other lines, results leading:

speed of sound ([1]; 293.15 K) [m/s]	mass density ([1]; 293.15 K) [kg/m3]	speed of sound ([1]; 298.15 K) [m/s]	mass density ([1]; 298.15 K) [kg/m3]	speed of sound ([1]; 303.15 K) [m/s]	mass density ([1]; 303.15 K) [kg/m3]	speed of sound ([1]; 308.15 K) [m/s]	mass density ([1]; 308.15 K) [kg/m3]	speed of sound ([1]; 313.15 K) [m/s]	mass density ([1]; 313.15 K) [kg/m3]	speed of sound ([2]; 293.15 K) [m/s]	mass density ([2]; 293.15 K) [kg/m3]	speed of sound ([2]; 298.15 K) [m/s]	mass density ([2]; 298.15 K) [kg/m3]	speed of sound ([2]; 303.15 K) [m/s]	mass density ([2]; 303.15 K) [kg/m3]	speed of sound ([2]; 308.15 K) [m/s]	mass density ([2]; 308.15 K) [kg/m3]	speed of sound ([2]; 313.15 K) [m/s]	mass density ([2]; 313.15 K) [kg/m3]	SMILES
–	–	–	–	–	–	–	–	–	–	1256.8 ± 5.3	809.523 ± 4	1239.7 ± 5.3	805.71 ± 4	1222.8 ± 5.3	801.872 ± 4	1206.1 ± 5.3	798.004 ± 4	1189.5 ± 5.2	794.103 ± 4	CCCCO [butan-1-ol] + CCCC(=O)[O-].CCCC[NH3+]
1161 ± 5.2	789.657 ± 4	1143.8 ± 5.2	785.366 ± 4	1126.8 ± 5.2	781.043 ± 4	1109.9 ± 5.2	776.696 ± 4	1093.1 ± 5.2	772.313 ± 4	–	–	–	–	–	–	–	–	–	–	CCO [ethanol]
–	–	–	–	–	–	–	–	–	–	1161 ± 5.2	789.657 ± 4	1143.8 ± 5.2	785.366 ± 4	1126.8 ± 5.2	781.043 ± 4	1109.9 ± 5.2	776.696 ± 4	1093.1 ± 5.2	772.313 ± 4	CCO [ethanol] + CCCC(=O)[O-].CCCC[NH3+]
1223.1 ± 5.3	803.625 ± 4	1205.8 ± 5.3	799.62 ± 4	1188.6 ± 5.3	795.582 ± 4	1171.6 ± 5.3	791.511 ± 4	1154.9 ± 5.3	787.407 ± 4	–	–	–	–	–	–	–	–	–	–	CCCO [propan-1-ol]
–	–	–	–	–	–	–	–	–	–	1223.1 ± 5.3	803.625 ± 4	1205.8 ± 5.3	799.62 ± 4	1188.6 ± 5.3	795.582 ± 4	1171.6 ± 5.3	791.511 ± 4	1154.9 ± 5.3	787.407 ± 4	CCCO [propan-1-ol] + CCCC(=O)[O-].CCCC[NH3+]

From the NIST ThermoML archive (doi:10.1016/j.jct.2016.09.007)
